For 13 molecules, IC50 results are on record in US20260258050A1, “IMMUNOMODULATOR” (HITGEN INC., priority 2023, published 2026).

In one assay the target is T1, Human IL-17A (Homo sapiens, UniProt Q16552).
T1 sequence (Q16552 20-155 limits assumed): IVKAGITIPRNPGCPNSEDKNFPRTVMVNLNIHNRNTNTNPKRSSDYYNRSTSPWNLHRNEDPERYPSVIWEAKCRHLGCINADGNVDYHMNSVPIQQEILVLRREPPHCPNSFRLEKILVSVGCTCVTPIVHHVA
The assay is described as follows: Inhibition of human IL-17A protein-induced GROα/CXCL1 production in HT-29 cells. The assay is classed as cell-based. To be noted: 30 ng/mL human IL-17A protein, 48 h, GROα in supernatant by ELISA kit, read-out: Inhibitory IC50 of compounds on HT-29 cell GROα/CXCL1. The arrangement: purchased R&D 317-ILB; host or cells: added exogenously to HT-29 cells. The gist of the method: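 Compound dilutions were preincubated 1 h at 37 °C with 30 ng/mL human IL-17A, then added to HT-29 cells (5×10^4/well) for 48 h at 37 °C. GROα in supernatant quantified by ELISA; IC50 for inhibition of its production. Positive control: IL-17A antibody at […].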
In general terms: ELISA stands for enzyme-linked immunosorbent assay.

Another assay has as its target T2, Human IL-17AF (Homo sapiens, UniProt Q16552+Q96PD4).
T2 construct: purchased Sino Biological Inc. CT047-H08H
T2 sequence (Q16552 24-155): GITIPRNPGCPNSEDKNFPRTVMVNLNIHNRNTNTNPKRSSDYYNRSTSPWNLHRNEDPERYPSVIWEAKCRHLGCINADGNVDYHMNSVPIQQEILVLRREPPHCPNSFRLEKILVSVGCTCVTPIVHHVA
T2 sequence (Q96PD4 31-163): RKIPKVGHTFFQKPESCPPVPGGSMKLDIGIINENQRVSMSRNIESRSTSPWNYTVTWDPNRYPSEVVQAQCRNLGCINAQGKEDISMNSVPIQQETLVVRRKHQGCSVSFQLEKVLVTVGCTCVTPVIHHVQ
The assay is described as follows: IL-17AF ELISA (competitive ELISA, IL-17AF/IL-17Ra receptor-ligand binding). Conditions: human IL-17AF coated plate, human IL-17Ra, read-out: IC50, inhibitory activity of compounds on human IL-17AF. The gist of the method: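 Plates coated with 0.625 μg/ml human IL-17AF in PBS pH 7.4 (37 °C, 30 min) and milk-blocked. Compounds pre-incubated with coated IL-17AF for 10 min at 25 °C, then IL-17Ra added (as 100 nM solution) for 30 min. Bound receptor detected by anti-Fc HRP/TMB at 450 nm; IC50 from variable-slope normalized fit versus DMSO control and blank.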

Molecules are shown by their SMILES.

In the case of `CCc1nocc1C(=O)N[C@H](C(=O)Nc1cc2c(cn1)-c1c(n[nH]c1C)CCN(C1CC1)C2)C(C1CC1)C1CC1` [compound 216], the IC50 is no more than 100 nM at Human IL-17A and 100 to 500 nM on Human IL-17AF.

Turning to `Cc1[nH]nc2c1-c1cnc(NC(=O)[C@@H](NC(=O)c3ccnn3C(C)C)C(C3CC3)C3CC3)cc1CN(C(C)C)C(=O)C2` [compound 195], the IC50 on Human IL-17A was no more than 100 nM; on Human IL-17AF, 100 to 500 nM.

Regarding `Cc1[nH]nc2c1-c1cnc(NC(=O)[C@@H](NC(=O)c3ccnn3CCCF)C(C3CC3)C3CC3)cc1COCC2` [compound 124], the IC50 on Human IL-17A was no more than 100 nM; on Human IL-17AF it was 100 to 500 nM.

For the molecule `CCn1nccc1C(=O)N[C@H](C(=O)Nc1ccc2c(c1)CNC(=O)Cc1n[nH]c(C)c1-2)C(C1CC1)C1CC1` [compound 28], the IC50 was 100 to 500 nM at Human IL-17A and no more than 100 nM at Human IL-17AF.

Regarding `Cc1[nH]nc2c1-c1cc(F)c(NC(=O)[C@@H](NC(=O)c3ccnn3CC3COC3)C(C3CC3)C3CC3)cc1COCC2` [compound 115], the IC50 on Human IL-17A and on Human IL-17AF was 100 to 500 nM each time.

In the case of `Cc1[nH]nc2c1-c1ccc(NC(=O)[C@@H](NC(=O)c3ccnn3C(C)C)C(C3CC3)C3CC3)cc1CN(C)C(=O)C2` [compound 22], the IC50 at Human IL-17A and at Human IL-17AF was no more than 100 nM throughout.

In the case of `[2H]C([2H])([2H])C([2H])(n1nccc1C(=O)N[C@H](C(=O)Nc1cc2c(cc1F)-c1c(n[nH]c1C)CCOC2)C(C1CC1)C1CC1)C([2H])([2H])[2H]` [compound 89], the IC50 at Human IL-17A was no more than 100 nM; on Human IL-17AF it was 100 to 500 nM.

With `Cc1[nH]nc2c1-c1cnc(NC(=O)[C@@H](NC(=O)c3conc3C3CC3)C(C3CC3)C3CC3)cc1CN(C1CC1)CC2` [compound 215], the IC50 on Human IL-17A and on Human IL-17AF was no more than 100 nM in each case.

In the case of `Cc1[nH]nc2c1-c1cc(F)c(NC(=O)[C@@H](NC(=O)c3ccnn3CCCF)C(C3CC3)C3CC3)cc1COCC2` [compound 86], the IC50 on Human IL-17A and at Human IL-17AF was no more than 100 nM each time.

In the case of `Cc1[nH]nc2c1-c1cnc(NC(=O)[C@@H](NC(=O)c3ccnn3C(C)C3CC3)C(C3CC3)C3CC3)cc1COCC2` (single isomer, unassigned) [compound 188a], the IC50 on Human IL-17A and at Human IL-17AF was 100 to 500 nM each time.

Take `CC(=O)N1CCc2n[nH]c(C)c2-c2cnc(NC(=O)[C@@H](NC(=O)c3ccnn3C(C)C)C(C3CC3)C3CC3)cc2C1` [compound 196]: the IC50 at Human IL-17A and on Human IL-17AF was 100 to 500 nM in each case.

As for `CCn1nccc1C(=O)N[C@H](C(=O)Nc1cc2c(cc1F)-c1c(n[nH]c1C)CCOC2)[C@H]1CC[C@H](C)CC1` [compound 46], the IC50 is 100 to 500 nM on Human IL-17A and no more than 100 nM at Human IL-17AF.

Turning to `Cc1[nH]nc2c1-c1cc(F)c(NC(=O)[C@@H](NC(=O)c3ccnn3C(C)C)C(C3CC3)C3CC3)cc1CN(C1CCC(F)(F)CC1)C(=O)C2` [compound 168], the values for the IC50 at Human IL-17A and on Human IL-17AF were no more than 100 nM and 100 to 500 nM, respectively.
